Calls of active or inactive are those of the source.
How the values were obtained:
Format in all cases: functional, organism-based
Penicillium oxalicum = test: Antimicrobial activity against Penicillium oxalicum CBS 219.30 at 25 ug
Escherichia coli = test: Antimicrobial activity against Escherichia coli ATCC 25922 at 25 ug
Bacillus subtilis = test: Antimicrobial activity against Bacillus subtilis ATCC 6633 at 25 ug
Micrococcus luteus = test: Antimicrobial activity against Micrococcus luteus ATCC 9341 at 25 ug

Measured: Activity

COc1ccc2c(c1OC)CN(C)c1c-2cc(OC)c2cc3c(cc12)OCO3
inactive: all assays above

COc1ccc2c(c1OC)CN(C)c1c-2ccc2cc3c(cc12)OCO3
inactive: all assays above

CN1Cc2c(ccc3c2OCO3)-c2ccc3cc4c(cc3c21)OCO4
inactive: all assays above

COc1cc2c(c3c1-c1ccc4cc5c(cc4c1N(C)C3)OCO5)OCO2
inactive: all assays above
